Laboratory results as given in the supplement of paper PMC5579334.
± gives the standard deviation of the averaged measurements.

Assays:
STS26T [1] = assay: drug sensitivity score (DSS, CellTox-Green cytotoxicity, 72 h) (DSS (dimensionless)); higher = more cytotoxic; extreme values may be limits of the assay
Procedure, shortened: (§1)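 For 72 h at 37 °C, MPNST cell lines and primary human Schwann cells were exposed in 384-well plates to five 10-fold compound dilutions. CellTox-Green, added before seeding at a final 1:1000 dilution, gave fluorescence from DNA released by disrupted cells. Signals were scaled to vehicle and positive-control wells, cultures failing plate quality control were left out, and four-parameter logistic fits were applied. Relative IC50 and drug sensitivity score were derived from the fits, with IC50 censored at the top concentration.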

HS-PSS [2] = assay: as above
Procedure, shortened: as §1

[3] = system: HSC2 (primary human Schwann cells); assay: as above
Procedure, shortened: as §1

[4] = system: HSC1 (primary human Schwann cells); assay: as above
Procedure, shortened: as §1

S1507-2 [5] = assay: as above
Procedure, shortened: as §1

ST8814 [6] = assay: as above
Procedure, shortened: as §1

HS-Sch-2 [7] = assay: % inhibition of CellTiter-Glo viability at highest tested concentration (72 h), relative to DMSO and benzethonium chloride controls; higher = more inhibition
Procedure, shortened: (§2)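 After seeding 750–1000 cells per well of MPNST cell lines or primary human Schwann cells into 384-well plates preprinted with each compound at five concentrations in 10-fold steps, plates were kept 72 h at 37 °C, 5% CO2. Viability was read as CellTiter-Glo ATP luminescence relative to vehicle and positive-control wells, with duplicates averaged where present. The data were fitted with four-parameter logistic models. Drug sensitivity score and relative IC50, censored at the top concentration, derive from the fits, and percent inhibition refers to the top concentration.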

STS26T [8] = assay: as above
Procedure, shortened: as §2

HS-PSS [9] = assay: as above
Procedure, shortened: as §2

S462 [10] = assay: as above
Procedure, shortened: as §2

[11] = system: HSC2 (primary human Schwann cells); assay: as above
Procedure, shortened: as §2

[12] = system: HSC1 (primary human Schwann cells); assay: as above
Procedure, shortened: as §2

S1507-2 [13] = assay: as above
Procedure, shortened: as §2

ST8814 [14] = assay: as above
Procedure, shortened: as §2

YST-1 [15] = assay: as above
Procedure, shortened: as §2

HS-Sch-2 [16] = assay: drug sensitivity score (DSS, CellTiter-Glo viability, 72 h) (DSS (dimensionless)); higher = more sensitive; extreme values may be limits of the assay
Procedure, shortened: as §2

STS26T [17] = assay: as above
Procedure, shortened: as §2

HS-PSS [18] = assay: as above
Procedure, shortened: as §2

S462 [19] = assay: as above
Procedure, shortened: as §2

[20] = system: HSC2 (primary human Schwann cells); assay: as above
Procedure, shortened: as §2

[21] = system: HSC1 (primary human Schwann cells); assay: as above
Procedure, shortened: as §2

S1507-2 [22] = assay: as above
Procedure, shortened: as §2

ST8814 [23] = assay: as above
Procedure, shortened: as §2

YST-1 [24] = assay: as above
Procedure, shortened: as §2

SMILES | drug sensitivity score (STS26T [1]) | drug sensitivity score (HS-PSS [2]) | drug sensitivity score [3] | drug sensitivity score [4] | drug sensitivity score (S1507-2 [5]) | drug sensitivity score (ST8814 [6]) | % inhibition (HS-Sch-2 [7]) [%] | % inhibition (STS26T [8]) [%] | % inhibition (HS-PSS [9]) [%] | % inhibition (S462 [10]) [%] | % inhibition [11] [%] | % inhibition [12] [%] | % inhibition (S1507-2 [13]) [%] | % inhibition (ST8814 [14]) [%] | % inhibition (YST-1 [15]) [%] | drug sensitivity score (HS-Sch-2 [16]) | drug sensitivity score (STS26T [17]) | drug sensitivity score (HS-PSS [18]) | drug sensitivity score (S462 [19]) | drug sensitivity score [20] | drug sensitivity score [21] | drug sensitivity score (S1507-2 [22]) | drug sensitivity score (ST8814 [23]) | drug sensitivity score (YST-1 [24])
CC(C)C[C@H](NC(=O)[C@H](CCc1ccccc1)NC(=O)CN1CCOCC1)C(=O)N[C@@H](Cc1ccccc1)C(=O)N[C@@H](CC(C)C)C(=O)[C@@]1(C)CO1 [Carfilzomib] (max concentration tested 1000 nM) | 21.5 | 17.5 | 19.7 | 19.3 | 21.4 ± 2.3 | 21.7 | 102 | 103 | 99.9 | 104 ± 1.3 | 101 | 103 | 102.9 ± 0.73 | 102 | 101 | 31.2 | 24.9 | 23.3 | 29 ± 2 | 24.4 | 23 | 21.7 ± 1.4 | 24.8 | 28.1
O=NN(CCCl)C(=O)NCCCl [Carmustine] (max concentration tested 10000 nM) | 0 | 0 | 0 | 0 | 0.439 ± 0.62 | 0 | 2.86 | -1.28 | 10.6 | -7.97 ± 1.3 | -7.14 | 0.41 | -5.49 ± 3.8 | -3.77 | 1.73 | 0 | 0 | 0.02 | 0 | 0 | 0 | 0 | 0 | 0
COc1cc2c(Oc3ccc4[nH]c(C)cc4c3F)ncnc2cc1OCCCN1CCCC1 [Cediranib] (max concentration tested 1000 nM) | 0 | 0 | 0.638 | 0 | 0.112 ± 0.16 | 0.0254 | 1.32 | 4.34 | 20.1 | -3.01 ± 12 | -10.7 | 12.1 | 19.9 ± 0.91 | 8.47 | -10.3 | 0 | 0 | 1.71 | 0 | 0 | 0.0876 | 0.908 ± 0.43 | 0 | 0
Cc1ccc(-c2cc(C(F)(F)F)nn2-c2ccc(S(N)(=O)=O)cc2)cc1 [Celecoxib] (max concentration tested 10000 nM) | 0 | 0 | 0 | 0 | 0 | 0 | -1.87 | -2 | -9.36 | 0.832 ± 4.7 | 3.55 | 11.3 | -6.68 ± 15 | -6.53 | 4.7 | 0 | 0 | 0 | 0 | 0 | 0.156 | 0 | 0 | 0
O=C(O)CCCc1ccc(N(CCCl)CCCl)cc1 [Chlorambucil] (max concentration tested 10000 nM) | 0 | 0 | 0 | 0 | 0 | 0 | 1.59 | -3.28 | 3.62 | -2.04 ± 1.9 | 21.9 | 24.7 | -14.4 ± 0.28 | -14.6 | 18.1 | 0 | 0 | 0 | 0 | 0.471 | 0.621 | 0 | 0 | 0.78
Nc1nc(Cl)nc2c1ncn2[C@H]1C[C@H](O)[C@@H](CO)O1 [Cladribine] (max concentration tested 1000 nM) | 0.902 | 0.65 | 5.38 | 4.05 | 4.43 ± 6.3 | 0.837 | 67.9 | 52.5 | 38.4 | 24.7 ± 8.6 | 71.9 | 61.2 | 9.03 ± 3 | 21.3 | 54.4 | 3.37 | 3.75 | 1.59 | 0.676 ± 0.56 | 6.3 | 5.81 | 0.0035 ± 0.005 | 0.423 | 2.87
Nc1nc(Cl)nc2c1ncn2[C@@H]1O[C@H](CO)[C@@H](O)[C@@H]1F [Clofarabine] (max concentration tested 10000 nM) | 6.47 | 6.52 | 15.8 | 15.7 | 3.61 ± 1.3 | 8.58 | 82.1 | 87.7 | 76 | 103 ± 1.1 | 85.7 | 79.4 | 88.7 ± 1.4 | 98.8 | 83.9 | 18.2 | 15.8 | 13 | 17.2 ± 2.3 | 17.5 | 14.4 | 11 ± 1.9 | 12.8 | 14.8
CCN(CC)CCOc1ccc(/C(=C(/Cl)c2ccccc2)c2ccccc2)cc1 [Clomifene] (max concentration tested 10000 nM) | 6.15 | 5.71 | 7.92 | 0 | 4.48 ± 1.9 | 6.68 | 98.5 | 92.4 | 87.8 | 77.6 ± 2.6 | 91.5 | 25.9 | 95.46 ± 0.71 | 96.9 | 44.2 | 5.21 | 6.27 | 6.39 | 5.36 ± 0.27 | 6.36 | 2.36 | 6.57 ± 0.14 | 6.53 | 1.77
CC1(COc2ccc3c(c2)ncn3-c2ccc3cccc(N4CCC(N)CC4)c3n2)COC1 [Crenolanib] (max concentration tested 10000 nM) | 5.47 | 4.69 | 3.85 | 3.33 | 10.4 ± 4.5 | 7.03 | 101 | 95.3 | 101 | 95.09 ± 0.94 | 85.3 | 84.7 | 95.6 ± 0.82 | 95 | 101 | 10.5 | 6.09 | 4.89 | 5.16 ± 0.26 | 5.95 | 5.48 | 7 ± 2.5 | 8.29 | 5.36
C[C@@H](Oc1cc(-c2cnn(C3CCNCC3)c2)cnc1N)c1c(Cl)ccc(F)c1Cl [Crizotinib] (max concentration tested 1000 nM) | 0 | 0 | 0 | 0 | 1.38 ± 2 | 0 | 19.5 | 1.87 | 48.6 | 13.3 ± 4.8 | 20.8 | 21.3 | 13.3 ± 2.3 | 7.26 | 27.5 | 0.41 | 0 | 2.17 | 0.409 ± 0.58 | 1.21 | 2.09 | 0.701 ± 0.72 | 0 | 0.85
O=P1(N(CCCl)CCCl)NCCCO1 (stereo unspecified) [Cyclophosphamide] (max concentration tested 40000 nM) | 0 | 0 | 0 | 0 | 2.5 ± 3.5 | 0 | -7.77 | -1.7 | -15 | -8.093 ± 0.056 | -1.29 | 8.38 | -7.33 ± 17 | -3.77 | 3.85 | 0 | 0 | 0 | 0 | 0 | 0 | 0 | 0 | 0
Nc1ccn([C@@H]2O[C@H](CO)[C@@H](O)[C@@H]2O)c(=O)n1 [Cytarabine] (max concentration tested 10000 nM) | 5.45 | 5.69 | 4.6 | 5.58 | 0.68 ± 0.19 | 7.9 | 69.3 | 74.7 | 65.1 | 96.4 ± 1.9 | 80.3 | 65.1 | 66.4 ± 5.8 | 90.2 | 69.2 | 9.14 | 13.8 | 10.2 | 20 ± 0.39 | 14 | 10.8 | 6.29 ± 0.62 | 12.1 | 13.2
CC(C)(C)c1nc(-c2cccc(NS(=O)(=O)c3c(F)cccc3F)c2F)c(-c2ccnc(N)n2)s1 [Dabrafenib] (max concentration tested 2500 nM) | 0 | 0.89 | 0.888 | 0.888 | 0 | 0 | 24.5 | 31.1 | 26.6 | 35.5 ± 1.5 | 31.7 | 39.9 | 17.6 ± 9.1 | 33 | 17.6 | 0.66 | 3.99 | 0.78 | 1.99 ± 0.58 | 5.89 | 4.42 | 0.291 ± 0.41 | 1.19 | 0.2
CN(C)/N=N/c1[nH]cnc1C(N)=O [Dacarbazine] (max concentration tested 10000 nM) | 0 | 0 | 0 | 0 | 0.828 ± 1.2 | 0 | 7.05 | 23.5 | 7.14 | 8.66 ± 8.8 | -1.82 | 9.74 | -5.83 ± 6.6 | 3.31 | -4.08 | 0 | 1.17 | 0 | 0.065 ± 0.092 | 0 | 0 | 0 | 0 | 0
